According to paper PMC3578829, “A Small Molecule (Pluripotin) as a Tool for Studying Cancer Stem Cell Biology: Proof of Concept” (PLoS ONE, 2013):
Where “and” joins values, the source holds several entries; their conditions need not be identical. Equal entries are not always repeated.

Columns and labels:
[1] = system: Seven Colon Tumor Lines of the NCI60 Panel; assay: Limiting dilution tumorigenicity, combined colon tumor lines; format: in vivo, NOD.SCID mice; settings: for Tumor take rate, TOTAL: 7 colon tumor lines treated 5 days with 0.1 µM SC-1
Experimental: (§1) Five day exposures were conducted.
(§2) Six week old female NOD.SCID mice were randomly assigned to each of 20 treatment arms (n = 5/group). Treated and control colon tumor lines were enzymatically harvested and counted prior to dilution in RPMI 1640 (at 10, 100, 1,000, 10,000 cells/inoculum) for subcutaneous injection into the axillary region using a volume of […]. Positive control groups were established such that tumor formation occurred in all mice in approximately one week thus confirming that all tumor lines studied were tumorigenic. Cell inocula for the positive control groups ranged from 1×10^6 to 2.5×10^6. Cell viability of the cell stocks was assessed by trypan blue exclusion prior to dilution for injection and was routinely found to be >95%. Tumor formation was monitored weekly using caliper measurements and the tumor mass was calculated as weight in mg = 1/2×(tumor length)×(tumor width)^2. All experiments were terminated at 120 days or when tumor weight exceeded 2000 mg for any individual mouse. In selected studies, tumor cells were resuspended in Matrigel (50% concentration, BD Biosciences) prior to injection.
Chi square tests and nonparametric conditional estimate for the Cochran Mantel-Haenzel common odds ratio were performed for the limiting dilution tumorigenicity studies. In the later case, the tumor lines were used as the stratification variable and the test evaluated whether the tumor take rate was equal in the two groups (control and treated). The purpose of combining data across distinct colon tumor lines was to aggregate small changes that if summed, may represent a heterogeneous population of patients with colon tumors, similar to analyses in clinical trials.

[2] = system: HT29; assay: Sphere formation in serum free media and low attachment vessels; format: cell-based; settings: serum free media, low attachment vessels, 0.1 µM SC-1, Day 1 and Day 5
Experimental: HT29 tumor line was cultured at 0.5–8 cells/µl in serum free media (RPMI 1640 containing EGF (20 ng/ml), bFGF (10 ng/ml) and B27 supplement) one day prior to addition of SC-1 (0.1 µM). The number of spheres per well was counted on Day 1 (A) and Day 5 (B) following treatment. Statistically significant effects (*p<0.05) for SC-1 treatment were found at all conditions where spheres formed. A representative experiment of 3 is shown here. (PDF) Click here for additional data file.

[3] = system: phospho-ERK1/2; assay: Immunoblotting of phospho-ERK1/2 relative to total ERK1/2 in HT29; format: cell-based
Experimental: To determine if SC-1 reached the same target in the treated colon tumor lines, changes in abundance of phospho-ERK 1/2 (p-ERK) and total ERK1/2 protein were evaluated by immunoblotting at time points similar to those previously studied (Figure 3A). In the HT29 treated tumor line, phospho-ERK 1/2 protein levels (relative to total ERK1/2 protein levels) were decreased in 5 min (67±0.06% of control value), reached a trough at 1 hr (46±0.06% of control), and remained decreased during the remainder of the time course (4 hrs, 68±0.10% of control value). Thus, it is likely SC-1 is reaching its cognate molecular target in the HT29 tumor line.
(§3) Standard protein electrophoretic techniques were followed using previously published protocols. For these studies, the colon lines were cultured for 5 days with and without treatments, harvested with trypsin (0.25% trypsin 0.5 mM EDTA, Invitrogen), counted and lysed with a whole cell lysis buffer (10 mM Tris, 1.0 mM EDTA, 50 mM NaCl, 0.5% deoxycholate, 0.5% NP-40, 0.5% SDS, 1.0 mM PMSF, and aprotonin and a cocktail of phosphatase and protease inhibitors). The whole cell lysate was heated to 100°C for 10 min and then fractionated (1000 g, 10 min, 4°C). Protein concentrations were measured with the Pierce BCA Protein Assay. Twenty to 40 µg of protein lysate per lane were loaded onto 10% SDS polyacrylamide gels (Ready-Gels, Biorad) with Laemmli buffer. For immunoblotting, the primary antibodies were diluted in Tween/Tris wash buffer (0.1 mM Tris-HCl pH 7.5, 2.5% Tween-20, 150 mM NaCl) and 5% BSA or nonfat dry milk and incubated overnight at 4°C. Visualization of specific bands was accomplished with an alkaline phosphatase-labeled secondary anti-immunoglobulin antibody and the ECF Chemifluorescent reagent (GE Amersham). Pixel intensity of the imaged bands was measured using STORM (GE Amersham) and Image Quant Software. Normalization for loading was accomplished by reprobing with an anti-actin antibody, quantification of pixel intensity and data normalization.

[4] = system: OCT4; assay: Immunoblotting of OCT4 in HT29; format: cell-based; settings: 0.1 µM SC-1
Experimental: as §3

[5] = system: COLO 205; assay: Limiting dilution tumorigenicity, s.c. xenograft without protein support; format: in vivo, NOD.SCID mice; parameters: key to Tumorigenicity: Y indicates increased tumor formation or increased time to appearance or both.; Y ^%: Y indicates increased tumor formation when Matrigel was co-injected
Experimental: as §1, §2

[6] = system: HT29; assay: as above; format: in vivo, NOD.SCID mice; parameters: key to Tumorigenicity: Y indicates increased tumor formation or increased time to appearance or both.; Y ^%: Y indicates increased tumor formation when Matrigel was co-injected
Experimental: as §1, §2

[7] = system: HCT-116; assay: as above; format: in vivo, NOD.SCID mice; parameters: key to Tumorigenicity: Y indicates increased tumor formation or increased time to appearance or both.; Y ^%: Y indicates increased tumor formation when Matrigel was co-injected
Experimental: as §1, §2

[8] = system: HCC-2998; assay: as above; format: in vivo, NOD.SCID mice; parameters: key to Tumorigenicity: Y indicates increased tumor formation or increased time to appearance or both.; Y ^%: Y indicates increased tumor formation when Matrigel was co-injected
Experimental: as §1, §2

[9] = system: SW-620; assay: as above; format: in vivo, NOD.SCID mice; parameters: key to Tumorigenicity: Y indicates increased tumor formation or increased time to appearance or both.; Y ^%: Y indicates increased tumor formation when Matrigel was co-injected
Experimental: as §1, §2

Question: Which results are given for `Cc1cc(Nc2ncc3c(n2)N(C)C(=O)N(c2cc(NC(=O)c4cccc(C(F)(F)F)c4)ccc2C)C3)n(C)n1` [SC-1]?
Answer: Tumor take rate, TOTAL ([1]; 100 cells inoculated s.c.): 2/35; Tumor take rate, TOTAL ([1]; 1000 cells inoculated s.c.): 6/35; Tumor take rate, TOTAL ([1]; 10000 cells inoculated s.c.): 19 of 35 and 19/35; Frequency estimate of tumor initiating ability, increase vs control ([1]; cumulative tumor take rate, 7 colon tumor lines, calculated from Taswell): approximately 2 fold; Mean day to 1000 mg tumor ([1]; mean±s.e.m. of 5 colon lines forming tumors, 10,000 cells/inoculum, 0.1 µM SC-1 pretreatment): 83 ± 19 days; Number of spheres per well vs control [2]: Increased Sphere Formation; phospho-ERK 1/2 protein levels relative to total ERK1/2 ([3]; 0.1 µM SC-1, 5 min): 67±0.06 % of control; phospho-ERK 1/2 protein levels relative to total ERK1/2 ([3]; 0.1 µM SC-1, 30 min): 56±0.06 % of control; phospho-ERK 1/2 protein levels relative to total ERK1/2 ([3]; 0.1 µM SC-1, 1 hr): 46±0.06 % of control; phospho-ERK 1/2 protein levels relative to total ERK1/2 ([3]; 0.1 µM SC-1, 4 hrs): 68±0.10 % of control; OCT4 protein expression [4]: increased; Tumorigenicity ([5]; COLO 205, summary of SC-1 effects): Y; Tumor take rate ([5]; COLO 205 treated 5 days with 0.1 µM SC-1, 100 cells inoculated s.c.): 0/5; Tumor take rate ([5]; COLO 205 treated 5 days with 0.1 µM SC-1, 1000 cells inoculated s.c.): 1/5; Tumor take rate ([5]; COLO 205 treated 5 days with 0.1 µM SC-1, 10000 cells inoculated s.c.): 4 of 5 and 4/5; Calculated Time to 1000 mg Tumor Volume ([5]; COLO 205 treated 5 days with 0.1 µM SC-1, 10,000 cells/inoculum, extrapolated from fitted line): 101 days; Tumorigenicity ([6]; HT29, summary of SC-1 effects): Y; Tumor take rate ([6]; HT29 treated 5 days with 0.1 µM SC-1, 100 cells inoculated s.c.): 2 of 5 and 2/5; Tumor take rate ([6]; HT29 treated 5 days with 0.1 µM SC-1, 1000 cells inoculated s.c.): 3/5@; Tumor take rate ([6]; HT29 treated 5 days with 0.1 µM SC-1, 10000 cells inoculated s.c.): 5/5; Calculated Time to 1000 mg Tumor Volume ([6]; HT29 treated 5 days with 0.1 µM SC-1, 10,000 cells/inoculum, extrapolated from fitted line): 32 days; Tumorigenicity ([7]; HCT-116, summary of SC-1 effects): Y; Tumor take rate ([7]; HCT-116 treated 5 days with 0.1 µM SC-1, 100 cells inoculated s.c.): 0/5; Tumor take rate ([7]; HCT-116 treated 5 days with 0.1 µM SC-1, 1000 cells inoculated s.c.): 2/5; Tumor take rate ([7]; HCT-116 treated 5 days with 0.1 µM SC-1, 10000 cells inoculated s.c.): 5/5; Calculated Time to 1000 mg Tumor Volume ([7]; HCT-116 treated 5 days with 0.1 µM SC-1, 10,000 cells/inoculum, extrapolated from fitted line): 45 days; Tumorigenicity ([8]; HCC-2998, summary of SC-1 effects): Y; Tumor take rate ([8]; HCC-2998 treated 5 days with 0.1 µM SC-1, 100 cells inoculated s.c.): 0/5; Tumor take rate ([8]; HCC-2998 treated 5 days with 0.1 µM SC-1, 1000 cells inoculated s.c.): 0/5; Tumor take rate ([8]; HCC-2998 treated 5 days with 0.1 µM SC-1, 10000 cells inoculated s.c.): 2/5; Calculated Time to 1000 mg Tumor Volume ([8]; HCC-2998 treated 5 days with 0.1 µM SC-1, 10,000 cells/inoculum, extrapolated from fitted line): 139 days; Tumorigenicity ([9]; SW-620, summary of SC-1 effects): Y; Tumor take rate ([9]; SW-620 treated 5 days with 0.1 µM SC-1, 100 cells inoculated s.c.): 0/5; Tumor take rate ([9]; SW-620 treated 5 days with 0.1 µM SC-1, 1000 cells inoculated s.c.): 0/5; Tumor take rate ([9]; SW-620 treated 5 days with 0.1 µM SC-1, 10000 cells inoculated s.c.): 2/5; Calculated Time to 1000 mg Tumor Volume ([9]; SW-620 treated 5 days with 0.1 µM SC-1, 10,000 cells/inoculum, extrapolated from fitted line): 98 days
